{
  "source": "patent US7291627B2",
  "about": "“Dihydroimidazo[5.1-a]-beta-carboline derivatives, method for their preparation, and their application as a drug” (MACEF, priority 2001, dated 2007)",
  "key": {"JA 657 chicks": {"tested_on": "JA 657 chicks", "experiment": "Chick sleep/sedation test (IM injection, 90 minute observation)", "assay_type": "in vivo", "settings": "for Sed (sedation time as % of the period) / TA (time to torpor between injection and first stage of sleep) / TS (duration of the first sleep) / Tsed (total sedation time over the period): 90 min observation; for TS (mins) Placebo diff'ce: extension of first sleep compared with test controls", "procedure,_shortened": "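JA 657 chicks (~100 g, 12 h light/dark cycle, 25 °C) received 1, 3 or 10 mg/kg IM, two batches of 3 per dose, with water-injected controls. Alertness was scored in 5-min blocks over 90 min with feeding stimulation every 15 min. Recorded measures were time to torpor, first-sleep duration (also as prolongation versus controls) and total sedation time.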"}, "Beagle dogs": {"tested_on": "Beagle dogs", "experiment": "Polysomnographic study in the dog (EEG, 4 hours after oral gelule)", "assay_type": "in vivo", "settings": "for Latency: Paradoxal (REM) sleep / Latency: Slow wave sleep (SWS) / Latency: Somnolence / Time passed at stage: Alertness / Time passed at stage: REM / Time passed at stage: SWS / Time passed at stage: Somnolence: oral gelule; for Time passed at stage: Alertness / Time passed at stage: REM / Time passed at stage: SWS / Time passed at stage: Somnolence: four hours of monitoring", "description": "The dihydroimidazo[5,1-a]-β-carboline derivatives of the invention, in particular those in the form of the methyl sulfonate, (soluble), were tested in chicks, and certain compounds that were active in the chick were administered in single doses to six Beagle dogs of both sexes for a polysomnographic study of at least 4 hours duration.\nPolysomnographic tests were carried out for each of the three products from the series, on 6 dogs of both sexes, adults from the certified breeding kennels at HARLAN, 03 Gannat, using stainless steel electrodes surgically implanted for the duration of the test in contact with the frontal bones through the sinus, facing the motor regions of the encephalus. The Nishino et al method adapted by Tafani, Valin et al has been described elsewhere. It comprised recording two traces for eye movements, one trace for muscular movements (concentric electrode in the nape muscles) and two electroencephalographic (EEG) traces. The digital EEG trace was recorded using a Nicollet Schwarzer polygraph or the like (DELTAMED Coherence 2 and 3, MEI Galileo NT) for 4 hours after administering a 00 gelule containing 0, 16 or 48 mg of the test product (i.e. a mean of 0,1 and 3 mg/kg of live weight).\nEach dog was monitored for 4 hours twice a day over two days, morning and afternoon, after one week's acclimatization to the monitoring cage, a 1 m^2, 80 cm high stainless steel cage of the SHOR-LINE type. For each dog, monitoring always commenced at the same time. A meal was distributed 30 minutes before starting monitoring.\nThe polysomnographic traces could differentiate between at least 4 stages for each consecutive 30 second period: awake, somnolence, slow sleep and paradoxal sleep. The latency of the appearance of each of the first nonalert episodes and the duration of each of the stages per 2 hour period were recorded for each dog. Comparing the means allowed the effect of the test products on the sleep microstructure to be studied."}},
  "data": [
    {"smiles": "CS(=O)(=O)O.Cc1ncc2n1CCc1c-2n(C)c2ccccc12", "note": "[Example 1, 3,11-dimethyl-5,6-dihydroimidazo[5,1-a]-β-carboline methane sulfonate]", "values": [
      {"measurement": "Sed (sedation time as % of the period)", "setting": "JA 657 chicks; Dose: 1 mg/kg", "result": 71.7, "unit": "%"},
      {"measurement": "TA (time to torpor between injection and first stage of sleep)", "setting": "JA 657 chicks; Dose: 1 mg/kg", "result": 7, "unit": "min"},
      {"measurement": "TS (duration of the first sleep)", "setting": "JA 657 chicks; Dose: 1 mg/kg", "result": 56.5, "unit": "min"},
      {"measurement": "Tsed (total sedation time over the period)", "setting": "JA 657 chicks; Dose: 1 mg/kg", "result": 64.5, "unit": "min"},
      {"measurement": "TS (mins) Placebo diff'ce", "setting": "JA 657 chicks; Dose: 1 mg/kg", "result": 56, "unit": "min"},
      {"measurement": "Sed (sedation time as % of the period)", "setting": "JA 657 chicks; Dose: 3 mg/kg", "result": 87.2, "unit": "%"},
      {"measurement": "TA (time to torpor between injection and first stage of sleep)", "setting": "JA 657 chicks; Dose: 3 mg/kg", "result": 4.5, "unit": "min"},
      {"measurement": "TS (duration of the first sleep)", "setting": "JA 657 chicks; Dose: 3 mg/kg", "result": 78.5, "unit": "min"},
      {"measurement": "Tsed (total sedation time over the period)", "setting": "JA 657 chicks; Dose: 3 mg/kg", "result": 78.5, "unit": "min"},
      {"measurement": "TS (mins) Placebo diff'ce", "setting": "JA 657 chicks; Dose: 3 mg/kg", "result": 78, "unit": "min"},
      {"measurement": "Sed (sedation time as % of the period)", "setting": "JA 657 chicks; Dose: 10 mg/kg", "result": 96.7, "unit": "%"},
      {"measurement": "TA (time to torpor between injection and first stage of sleep)", "setting": "JA 657 chicks; Dose: 10 mg/kg", "result": 1, "unit": "min"},
      {"measurement": "TS (duration of the first sleep)", "setting": "JA 657 chicks; Dose: 10 mg/kg", "result": 86, "unit": "min"},
      {"measurement": "Tsed (total sedation time over the period)", "setting": "JA 657 chicks; Dose: 10 mg/kg", "result": 87, "unit": "min"},
      {"measurement": "TS (mins) Placebo diff'ce", "setting": "JA 657 chicks; Dose: 10 mg/kg", "result": 85.7, "unit": "min"},
      {"measurement": "latency of the first somnolence (in words)", "setting": "Beagle dogs; 1 and 3 mg/kg, versus placebo", "result": "clearer in the 3 mg/kg dose"},
      {"measurement": "Latency: Paradoxal (REM) sleep", "setting": "Beagle dogs; 1 mg", "result": "101 ± 80.3", "unit": "min"},
      {"measurement": "Latency: Slow wave sleep (SWS)", "setting": "Beagle dogs; 1 mg", "result": "52 ± 24.8", "unit": "min"},
      {"measurement": "Latency: Somnolence", "setting": "Beagle dogs; 1 mg", "result": "47 ± 19.1", "unit": "min"},
      {"measurement": "Time passed at stage: Alertness", "setting": "Beagle dogs; 1 mg", "result": "139 ± 69.1", "unit": "min"},
      {"measurement": "Time passed at stage: REM", "setting": "Beagle dogs; 1 mg", "result": "23 ± 19.1", "unit": "min"},
      {"measurement": "Time passed at stage: SWS", "setting": "Beagle dogs; 1 mg", "result": "51 ± 42.3", "unit": "min"},
      {"measurement": "Time passed at stage: Somnolence", "setting": "Beagle dogs; 1 mg", "result": "27 ± 10.4", "unit": "min"},
      {"measurement": "Latency: Paradoxal (REM) sleep", "setting": "Beagle dogs; 3 mg", "result": "50 ± 22.2", "unit": "min"},
      {"measurement": "Latency: Slow wave sleep (SWS)", "setting": "Beagle dogs; 3 mg", "result": "27 ± 8.0", "unit": "min"},
      {"measurement": "Latency: Somnolence", "setting": "Beagle dogs; 3 mg", "result": "21 ± 7.1", "unit": "min"},
      {"measurement": "Time passed at stage: Alertness", "setting": "Beagle dogs; 3 mg", "result": "106 ± 34.7", "unit": "min"},
      {"measurement": "Time passed at stage: REM", "setting": "Beagle dogs; 3 mg", "result": "29 ± 13.7", "unit": "min"},
      {"measurement": "Time passed at stage: SWS", "setting": "Beagle dogs; 3 mg", "result": "65 ± 30.2", "unit": "min"},
      {"measurement": "Time passed at stage: Somnolence", "setting": "Beagle dogs; 3 mg", "result": "40 ± 10.9", "unit": "min"}
    ]},
    {"smiles": "COc1ccc2[nH]c3c(c2c1)CCn1c-3cnc1C.CS(=O)(=O)O", "note": "[Example 2, 8-methoxy-3-methyl-5,6-dihydroimidazo[5,1-a]-β-carboline methane sulfonate]", "values": [
      {"measurement": "Sed (sedation time as % of the period)", "setting": "JA 657 chicks; Dose: 1 mg/kg", "result": 27.8, "unit": "%"},
      {"measurement": "TA (time to torpor between injection and first stage of sleep)", "setting": "JA 657 chicks; Dose: 1 mg/kg", "result": 16, "unit": "min"},
      {"measurement": "TS (duration of the first sleep)", "setting": "JA 657 chicks; Dose: 1 mg/kg", "result": 3, "unit": "min"},
      {"measurement": "Tsed (total sedation time over the period)", "setting": "JA 657 chicks; Dose: 1 mg/kg", "result": 25, "unit": "min"},
      {"measurement": "TS (mins) Placebo diff'ce", "setting": "JA 657 chicks; Dose: 1 mg/kg", "result": 3, "unit": "min"},
      {"measurement": "Sed (sedation time as % of the period)", "setting": "JA 657 chicks; Dose: 3 mg/kg", "result": 69.4, "unit": "%"},
      {"measurement": "TA (time to torpor between injection and first stage of sleep)", "setting": "JA 657 chicks; Dose: 3 mg/kg", "result": 8.5, "unit": "min"},
      {"measurement": "TS (duration of the first sleep)", "setting": "JA 657 chicks; Dose: 3 mg/kg", "result": 41, "unit": "min"},
      {"measurement": "Tsed (total sedation time over the period)", "setting": "JA 657 chicks; Dose: 3 mg/kg", "result": 62.5, "unit": "min"},
      {"measurement": "TS (mins) Placebo diff'ce", "setting": "JA 657 chicks; Dose: 3 mg/kg", "result": 41, "unit": "min"},
      {"measurement": "Sed (sedation time as % of the period)", "setting": "JA 657 chicks; Dose: 10 mg/kg", "result": 92.2, "unit": "%"},
      {"measurement": "TA (time to torpor between injection and first stage of sleep)", "setting": "JA 657 chicks; Dose: 10 mg/kg", "result": 7, "unit": "min"},
      {"measurement": "TS (duration of the first sleep)", "setting": "JA 657 chicks; Dose: 10 mg/kg", "result": 83, "unit": "min"},
      {"measurement": "Tsed (total sedation time over the period)", "setting": "JA 657 chicks; Dose: 10 mg/kg", "result": 83, "unit": "min"},
      {"measurement": "TS (mins) Placebo diff'ce", "setting": "JA 657 chicks; Dose: 10 mg/kg", "result": 83, "unit": "min"},
      {"measurement": "Latency: Paradoxal (REM) sleep", "setting": "Beagle dogs; 1 mg", "result": "114 ± 53", "unit": "min"},
      {"measurement": "Latency: Slow wave sleep (SWS)", "setting": "Beagle dogs; 1 mg", "result": "44 ± 16.3", "unit": "min"},
      {"measurement": "Latency: Somnolence", "setting": "Beagle dogs; 1 mg", "result": "40 ± 14.7", "unit": "min"},
      {"measurement": "Time passed at stage: Alertness", "setting": "Beagle dogs; 1 mg", "result": "136 ± 40.3", "unit": "min"},
      {"measurement": "Time passed at stage: REM", "setting": "Beagle dogs; 1 mg", "result": "13.5 ± 10.6", "unit": "min"},
      {"measurement": "Time passed at stage: SWS", "setting": "Beagle dogs; 1 mg", "result": "59 ± 20.5", "unit": "min"},
      {"measurement": "Time passed at stage: Somnolence", "setting": "Beagle dogs; 1 mg", "result": "31 ± 4.6", "unit": "min"},
      {"measurement": "Latency: Paradoxal (REM) sleep", "setting": "Beagle dogs; 3 mg", "result": "63 ± 21.1", "unit": "min"},
      {"measurement": "Latency: Slow wave sleep (SWS)", "setting": "Beagle dogs; 3 mg", "result": "45 ± 5.4", "unit": "min"},
      {"measurement": "Latency: Somnolence", "setting": "Beagle dogs; 3 mg", "result": "37 ± 6.7", "unit": "min"},
      {"measurement": "Time passed at stage: Alertness", "setting": "Beagle dogs; 3 mg", "result": "123 ± 30.5", "unit": "min"},
      {"measurement": "Time passed at stage: REM", "setting": "Beagle dogs; 3 mg", "result": "20 ± 9.5", "unit": "min"},
      {"measurement": "Time passed at stage: SWS", "setting": "Beagle dogs; 3 mg", "result": "60 ± 26.9", "unit": "min"},
      {"measurement": "Time passed at stage: Somnolence", "setting": "Beagle dogs; 3 mg", "result": "36 ± 15.4", "unit": "min"}
    ]}
  ]
}
